Our source for the IC50 values is US20250026753A1, “FUSED TRIAZINONE DERIVATIVES AND METHODS OF USING THE SAME” (Rgenta Therapeutics, Inc., priority 2021, published 2025).

Structures can show the parent of a compound that is named as a salt.

In one experiment the test system is K562. The experiment is described as follows: Cell proliferation assay (CellTiterGlo, 72 hour incubation), K562. It is filed as cell-based. As to conditions: Homo sapiens, K562 cells, inhibition of cell proliferation, CellTiterGlo luminescence. The method, then:
(§1) Various cancer cell lines including K562 and COLO201, were treated with the compounds of the present disclosure to assess their effect on inhibiting cell proliferation.
(§2) For compound preparation, test compounds were diluted in duplicates from 10 mM stocks in 11-points 1:3 serial dilutions in DMSO. Then 125 nL test compounds at the serial dilutions were dispensed into 384-well assay plate using Echo dispenser. Staurosporine at 1 mM stock (5 μM final concentration) and DMSO (0.500 final concentration) were used as the positive and negative controls respectively.
(§3) To prepare cell lines, each frozen cell line stock was resuspended and grown in proper growth medium to a density of 40,000 cells/mL. Then 25 μL of cell suspension were dispensed into the assay plate to give seed cell density at 1,000 cells/well, compounds at 50 μM top concentration with 11-point serial dilutions, and 0.5% o DMSO final concentration. Assay plates were then centrifuged at 300 rpm for 1 minute and then incubated at 37° C., 9500 humidity, 500 CO2 for 72 hours. After the 72 hour incubation, the assay plate and its contents were equilibrated at room temperature for approximately 30 minutes. 25 μL of CellTiterGlo reagent was added to the assay plate and mixed for two minutes on an orbital shaker. Then after 10 minutes of incubation of assay plate at from temperature, the luminescence (RLU) signals in each well were recorded using Envision plate reader, then converted to percentage inhibition values using the signals in staurosporine and DMSO treated wells as the references. IC50 values were determined by curve fitting in Levenberg-Marquardt algorithm.
(In general: Cellular ATP, detected with luciferase, serves as a proxy for viable cell number.)

The test system of another experiment is COLO201. The experiment is described as follows: Cell proliferation assay (CellTiterGlo, 72 hour incubation), COLO201. It is filed as cell-based. As to conditions: Homo sapiens, COLO 201, COLO201 cells, inhibition of cell proliferation, CellTiterGlo luminescence. The method, then: as §1, §2, §3

By IC50 is commonly meant the concentration needed to halve the response being measured. Read a low IC50 as greater potency. Consider `Cc1cn2cc(-c3nc(=O)n4cc(N5CCN[C@@H](C)C5)cc(F)c4n3)cc(F)c2n1` [Compound 116, (S)-9-fluoro-2-(8-fluoro-2-methylimidazo[1,2-a]pyridine-6-yl)-7-(3-methylpiperazin-1-yl)-4H-pyrido[1,2-a][1,3,5]triazin-4-one], for which the IC50 in the experiment with K562 and in the experiment on COLO201 was < 1 µM in each case.

Take `Cc1cn2cc(-c3nc(=O)n4cc(N5CCN[C@@H](C)C5)cc(C)c4n3)cc(F)c2n1` [Compound 117, (S)-2-(8-fluoro-2-methylimidazo[1,2-a]pyridin-6-yl)-9-methyl-7-(3-methylpiperazin-1-yl)-4H-pyrido[1,2-a][1,3,5]triazin-4-one hydrochloride]: the 50% inhibitory concentration (IC50) with K562 and with COLO201 was < 1 µM each time.

With `Cc1cn2cc(-c3nc(=O)n4cc(N5CC6CCCC(C5)N6)ccc4n3)cc(F)c2n1` [Compound 118, 7-(3,9-diazabicyclo[3.3.1]nonan-3-yl)-2-(8-fluoro-2-methylimidazo[1,2-a]pyridin-6-yl)-4H-pyrido[1,2-a][1,3,5]triazin-4-one hydrochloride], the IC50 with K562 was < 1 µM; in the experiment with COLO201 it was 1 to 10 µM.

Consider `COc1cc2nc(-c3cc(F)c4nc(C)cn4c3)nc(=O)n2cc1N1CCNCC1` [Compound 119, 2-(8-fluoro-2-methylimidazo[1,2-a]pyridin-6-yl)-8-methoxy-7-(piperazin-1-yl)-4H-pyrido[1,2-a][1,3,5]triazin-4-one], for which the IC50 with K562 and in the experiment with COLO201 was 1 to 10 µM each time.

With `COc1c(N2CCNCC2)ccc2nc(-c3cc(F)c4nc(C)cn4c3)nc(=O)n12` [Compound 120, 2-(8-fluoro-2-methylimidazo[1,2-a]pyridin-6-yl)-6-methoxy-7-(piperazin-1-yl)-4H-pyrido[1,2-a][1,3,5]triazin-4-one formic acid], the half-inhibitory concentration (IC50) in the experiment on K562 and in the experiment on COLO201 was ≥ 10 µM throughout.

Regarding `Cc1cn2cc(-c3nc(=O)n4cc(N5CCN[C@@H](C)C5)cc(F)c4n3)cc(C)c2n1` [Compound 121, (S)-2-(2,8-dimethylimidazo[1,2-a]pyridin-6-yl)-9-fluoro-7-(3-methylpiperazin-1-yl)-4H-pyrido[1,2-a][1,3,5]triazin-4-one hydrochloride], the IC50 in the experiment on K562 and in the experiment on COLO201 was < 1 µM throughout.

In the case of `Cc1cn2cc(-c3nc(=O)n4c(C)c(N5CCNCC5)ccc4n3)cc(F)c2n1` [Compound 122, 2-(8-fluoro-2-methylimidazo[1,2-a]pyridin-6-yl)-6-methyl-7-(piperazin-1-yl)-4H-pyrido[1,2-a][1,3,5]triazin-4-one hydrochloride], the 50% inhibitory concentration (IC50) with K562 was 1 to 10 µM; in the experiment with COLO201, ≥ 10 µM.

On to `Cc1cn2cc(-c3nc(=O)n4cc(N5CC6(CNC6)C5)ccc4n3)cc(F)c2n1` [Compound 127, 7-2,6-diazaspiro[3.3]heptan-2-yl-2-8-fluoro-2-methylimidazo[1,2-a]pyridin-6-yl-4H-pyrido[1,2-a][1,3,5]triazin-4-one trifluoroacetic acid], for which the IC50 is 1 to 10 µM in the experiment on K562 and ≥ 10 µM in the experiment with COLO201.

For `Cc1cc2cc(-c3nc(=O)n4cc(N5CCN[C@@H](C)C5)cc(F)c4n3)cc(C)n2n1` [Compound 131, 2-{2,7-dimethylpyrazolo[1,5-a]pyridin-5-yl}-9-fluoro-7-[(3S)-3-methylpiperazin-1-yl]-4H-pyrido[1,2-a][1,3,5]triazin-4-one], the IC50 in the experiment on K562 and in the experiment with COLO201 was < 1 µM throughout.

As for `C[C@H]1CN(c2ccc3nc(-c4cc(F)c5nn(C)cc5c4)nc(=O)n3c2)CCN1` [Compound 133, (S)-2-(7-fluoro-2-methyl-2H-indazol-5-yl)-7-(3-methylpiperazin-1-yl)-4H-pyrido[1,2-a][1,3,5]triazin-4-one hydrochloride], the results for the IC50 with K562 and in the experiment with COLO201 were < 1 µM and 1 to 10 µM, respectively.
